Where a name gives a salt, the structure may show the parent alone. Read-outs that look alike come from different tables or passages of the source.
Tested on: LPS-induced TNF-α release in peripheral blood mononuclear cells (PBMCs)
Assay: In vitro determination of PDE4 inhibitory activity in the PBMCs assay (LPS-induced TNF-α release)
Assay type: cell-based, human
Details: PBMC, read-out: PDE4 inhibition (IC50, 50% inhibition of LPS-induced TNF-α release)
Experimental: The assay, which is based on the known inhibitory activity exerted by PDE4 inhibitors on the lipopolyshaccarides (LPS)-induced tumour necrosis factor-alpha (TNF-α release in peripheral blood mononuclear cells (PBMCs), was performed according to a method previously described (Hatzelmann A et al., J. Pharmacol. Exp. Ther., 2001; 297:267-279; and Draheim R et al., J. Pharmacol. Exp. Ther., 2004; 308:555-563, which are incorporated herein by reference in their entireties). Cryopreserved human PBMCs, (100 l/well) were incubated in 96-well plates (10^5 cells/well), for 30 minutes, in the presence or absence (50 microl) of the test compounds whose concentrations ranged from 10^−12 M to 10^−6 M or from […] to 10^−7 M. Subsequently, LPS (3 ng/ml) was added.
After 18 hours of incubation at 37° C. in a humidified incubator under an atmosphere of 95% air and 5% CO2, culture medium was collected and TNF-α measured by ELISA. The results of the tested compounds, representatives of the invention, expressed as mean±95% confidence limits of the molar concentration of the test compound producing 50% inhibition of LPS-induced TNF-α release (IC50) are shown in the following Table: […]

[1] = human PBMCs, LPS 3 ng/ml, 18 hours, compounds of formula (II)
[2] = human PBMCs, LPS 3 ng/ml, 18 hours, TNF-α by ELISA

SMILES	IC50 [2] [nM]	also measured
O=C(O[C@@H](Cc1c(Cl)c[n+]([O-])cc1Cl)c1ccc(OC(F)F)c(OCC2CC2)c1)[C@H]1NCCS1 [Compound 6, 3,5-dichloro-4-((S)-2-(3-(cyclopropylmethoxy)-4-(difluoromethoxy)phenyl)-2-((S)-thiazolidine-2-carbonyloxy)ethyl)pyridine 1-oxide hydrochloride]	–	IC50 [1]: 0.1 to 1 nM
CN(C)C(=O)c1cccc(S(=O)(=O)N2CCSC2C(=O)O[C@@H](Cc2c(Cl)c[n+]([O-])cc2Cl)c2ccc(OC(F)F)c(OCC3CC3)c2)c1 (stereo partly drawn) [Compound 56, 3,5-dichloro-4-((2S)-2-(3-(cyclopropylmethoxy)-4-(difluoromethoxy)phenyl)-2-(3-(3-(dimethylcarbamoyl)phenylsulfonyl)thiazolidine-2-carbonyloxy)ethyl)pyridine 1-oxide]	< 0.1	–
Cc1noc(C)c1S(=O)(=O)N1CCSC1C(=O)O[C@@H](Cc1c(Cl)c[n+]([O-])cc1Cl)c1ccc(OC(F)F)c(OCC2CC2)c1 (stereo partly drawn) [Compound 76, 3,5-dichloro-4-((2S)-2-(3-(cyclopropylmethoxy)-4-(difluoromethoxy)phenyl)-2-(3-(3,5-dimethylisoxazol-4-ylsulfonyl)thiazolidine-2-carbonyloxy)ethyl)pyridine 1-oxide]	0.1 to 1	–
CN(C)Cc1ccc(C(=O)N2CCSC2C(=O)O[C@@H](Cc2c(Cl)c[n+]([O-])cc2Cl)c2ccc(OC(F)F)c(OCC3CC3)c2)s1 (stereo partly drawn) [Compound 51, 3,5-dichloro-4-((2S)-2-(3-(cyclopropylmethoxy)-4-(difluoromethoxy)phenyl)-2-(3-(5-((dimethylamino)methyl)thiophene-2-carbonyl)thiazolidine-2-carbonyloxy)ethyl)pyridine 1-oxide formate]	0.1 to 1	–
Cc1noc2ncc(S(=O)(=O)N3CSC[C@H]3C(=O)O[C@@H](Cc3c(Cl)c[n+]([O-])cc3Cl)c3ccc(OC(F)F)c(OCC4CC4)c3)cc12 [Compound 253, 3,5-dichloro-4-((S)-2-(3-(cyclopropylmethoxy)-4-(difluoromethoxy)phenyl)-2-((R)-3-(3-methylisoxazolo[5,4-b]pyridin-5-ylsulfonyl)thiazolidine-4-carbonyloxy)ethyl)pyridine 1-oxide]	0.1 to 1	–
CN(C)C(=O)c1cccc(S(=O)(=O)N2CCN(CC(=O)O[C@@H](Cc3c(Cl)c[n+]([O-])cc3Cl)c3ccc(OC(F)F)c(OCC4CC4)c3)CC2)c1 [Compound 121, (S)-3,5-dichloro-4-(2-(3-(cyclopropylmethoxy)-4-(difluoromethoxy)phenyl)-2-(2-(4-(3-(dimethylcarbamoyl)phenylsulfonyl)piperazin-1-yl)acetoxy)ethyl)pyridine 1-oxide]	0.1 to 1	–
CC(=O)c1cccc(S(=O)(=O)N2CCS[C@H]2C(=O)O[C@@H](Cc2c(Cl)c[n+]([O-])cc2Cl)c2ccc(OC(F)F)c(OCC3CC3)c2)c1 [Compound 117, 4-((S)-2-((S)-3-(3-acetylphenylsulfonyl)thiazolidine-2-carbonyloxy)-2-(3-(cyclopropylmethoxy)-4-(difluoromethoxy)phenyl)ethyl)-3,5-dichloropyridine 1-oxide]	0.1 to 1	–
N#Cc1cc(S(=O)(=O)N2CCS[C@H]2C(=O)O[C@@H](Cc2c(Cl)c[n+]([O-])cc2Cl)c2ccc(OC(F)F)c(OCC3CC3)c2)ccc1F [Compound 209, 3,5-dichloro-4-((S)-2-((S)-3-(3-cyano-4-fluorophenylsulfonyl)thiazolidine-2-carbonyloxy)-2-(3-(cyclopropylmethoxy)-4-(difluoromethoxy)phenyl)ethyl)pyridine 1-oxide]	0.1 to 1	–
CN1CCOc2ccc(S(=O)(=O)N3CCS[C@H]3C(=O)O[C@@H](Cc3c(Cl)c[n+]([O-])cc3Cl)c3ccc(OC(F)F)c(OCC4CC4)c3)cc21 [Compound 108, 3,5-dichloro-4-((S)-2-(3-(cyclopropylmethoxy)-4-(difluoromethoxy)phenyl)-2-((S)-3-(4-methyl-3,4-dihydro-2H-benzo[b][1,4]oxazin-6-ylsulfonyl)thiazolidine-2-carbonyloxy)ethyl)pyridine 1-oxide]	0.1 to 1	–
CN(C)S(=O)(=O)c1cccc(S(=O)(=O)N2CCCC[C@H]2C(=O)O[C@@H](Cc2c(Cl)c[n+]([O-])cc2Cl)c2ccc(OC(F)F)c(OCC3CC3)c2)c1 [Compound 113, 3,5-dichloro-4-((S)-2-(3-(cyclopropylmethoxy)-4-(difluoromethoxy)phenyl)-2-((S)-1-(3-(N,N-dimethylsulfamoyl)phenylsulfonyl)piperidine-2-carbonyloxy)ethyl)pyridine 1-oxide]	< 0.1	–
O=C(O[C@@H](Cc1c(Cl)c[n+]([O-])cc1Cl)c1ccc(OC(F)F)c(OCC2CC2)c1)[C@H]1CCCCN1 [Compound 9]	–	IC50 [1]: 1 to 10 nM
Cn1ccnc1S(=O)(=O)N1CCS[C@H]1C(=O)O[C@@H](Cc1c(Cl)c[n+]([O-])cc1Cl)c1ccc(OC(F)F)c(OCC2CC2)c1 [Compound 90, 3,5-dichloro-4-((S)-2-(3-(cyclopropylmethoxy)-4-(difluoromethoxy)phenyl)-2-((S)-3-(1-methyl-1H-imidazol-2-ylsulfonyl)thiazolidine-2-carbonyloxy)ethyl)pyridine 1-oxide]	< 0.1	–
O=C(O[C@@H](Cc1c(Cl)c[n+]([O-])cc1Cl)c1ccc(OC(F)F)c(OCC2CC2)c1)C1SCCN1S(=O)(=O)CC1CC1 (stereo partly drawn) [Compound 65, 3,5-dichloro-4-((2S)-2-(3-(cyclopropylmethoxy)-4-(difluoromethoxy)phenyl)-2-(3-(cyclopropylmethylsulfonyl)thiazolidine-2-carbonyloxy)ethyl)pyridine 1-oxide]	0.1 to 1	–
O=C(O[C@@H](Cc1c(Cl)c[n+]([O-])cc1Cl)c1ccc(OC(F)F)c(OCC2CC2)c1)C1SCCN1S(=O)(=O)c1cccc(Cl)c1 (stereo partly drawn) [Compound 63, 3,5-dichloro-4-((2S)-2-(3-(3-chlorophenylsulfonyl)thiazolidine-2-carbonyloxy)-2-(3-(cyclopropylmethoxy)-4-(difluoromethoxy)phenyl)ethyl)pyridine 1-oxide]	0.1 to 1	–
CN(C)S(=O)(=O)c1cccc(S(=O)(=O)N2CCS[C@H]2C(=O)O[C@@H](Cc2c(Cl)c[n+]([O-])cc2Cl)c2ccc(OC(F)F)c(OCC3CC3)c2)c1 [Compound 97, 3,5-dichloro-4-((S)-2-(3-(cyclopropylmethoxy)-4-(difluoromethoxy)phenyl)-2-((S)-3-(3-(N,N-dimethylsulfamoyl)phenylsulfonyl)thiazolidine-2-carbonyloxy)ethyl)pyridine 1-oxide]	< 0.1	–
Cc1cc(F)ccc1S(=O)(=O)N1CCSC1C(=O)O[C@@H](Cc1c(Cl)c[n+]([O-])cc1Cl)c1ccc(OC(F)F)c(OCC2CC2)c1 (stereo partly drawn) [Compound 69, 3,5-dichloro-4-((2S)-2-(3-(cyclopropylmethoxy)-4-(difluoromethoxy)phenyl)-2-(3-(4-fluoro-2-methylphenylsulfonyl)thiazolidine-2-carbonyloxy)ethyl)pyridine 1-oxide]	0.1 to 1	–
Nc1ccc(S(=O)(=O)N2CCS[C@@H]2C(=O)O[C@@H](Cc2c(Cl)c[n+]([O-])cc2Cl)c2ccc(OC(F)F)c(OCC3CC3)c2)cc1 [Compound 151, 4-((S)-2-((R)-3-(4-aminophenylsulfonyl)thiazolidine-2-carbonyloxy)-2-(3-(cyclopropylmethoxy)-4-(difluoromethoxy)phenyl)ethyl)-3,5-dichloropyridine 1-oxide]	–	IC50 (Homo sapiens, 18 h): 0.1 to 1 nM
CNS(=O)(=O)c1ccc(S(=O)(=O)N2CCS[C@H]2C(=O)O[C@@H](Cc2c(Cl)c[n+]([O-])cc2Cl)c2ccc(OC(F)F)c(OCC3CC3)c2)cc1 [Compound 94, 3,5-dichloro-4-((S)-2-(3-(cyclopropylmethoxy)-4-(difluoromethoxy)phenyl)-2-((S)-3-(4-(N-methylsulfamoyl)phenylsulfonyl)thiazolidine-2-carbonyloxy)ethyl)pyridine 1-oxide]	< 0.1	–
O=C(O[C@@H](Cc1c(Cl)c[n+]([O-])cc1Cl)c1ccc(OC(F)F)c(OCC2CC2)c1)[C@@H]1SCCN1C(=O)c1ccc(N2CCS(=O)(=O)CC2)cc1 [Compound 36]	0.1 to 1	–
COC(=O)c1ccc(S(=O)(=O)N2CCSC2C(=O)O[C@@H](Cc2c(Cl)c[n+]([O-])cc2Cl)c2ccc(OC(F)F)c(OCC3CC3)c2)s1 (stereo partly drawn) [Compound 87, 3,5-dichloro-4-((2S)-2-(3-(cyclopropylmethoxy)-4-(difluoromethoxy)phenyl)-2-(3-(5-(methoxycarbonyl)thiophen-2-ylsulfonyl)thiazolidine-2-carbonyloxy)ethyl)pyridine 1-oxide]	0.1 to 1	–
CN1CCN(C(=O)c2cccc(S(=O)(=O)N3CCS[C@H]3C(=O)O[C@@H](Cc3c(Cl)c[n+]([O-])cc3Cl)c3ccc(OC(F)F)c(OCC4CC4)c3)c2)CC1 [Compound 132, 3,5-dichloro-4-((S)-2-(3-(cyclopropylmethoxy)-4-(difluoromethoxy)phenyl)-2-((S)-3-(3-(4-methylpiperazine-1-carbonyl)phenylsulfonyl)thiazolidine-2-carbonyloxy)ethyl)pyridine 1-oxide]	< 0.1	–

From patent publication US9931327B2, “Derivatives of 1-phenyl-2-pyridinyl alkyl alcohols as phosphodiesterase inhibitors” (Chiesi Farmaceutici S.p.A., priority 2011, dated 2018)
